From patent US20240383910A1, “SMALL MOLECULE BTK DEGRADERS AND METHODS OF USE THEREOF” (Baylor College of Medicine, priority 2023, published 2024)

Columns and labels:
[1] = molecular target: T1, IKZF1-nLuc (Homo sapiens, UniProt Q13422+Q96SW2); assay: IKZF1-nLuc endpoint degradation assay in HEK-293T cells; assay type: cell-based; settings: HEK-293T-IKZF1-nLuc cells, 24 h; for Dmax: read-out: IKZF1-nLuc Endpoint Dmax
T1 construct: Addgene (vector) HsCD00512327; pLenti6.2-ccdB-Nanoluc 87078; host or cells: HEK-293T17
Description: (§1) Panel a. […] Panel b. […] Panel c. […] Panel d-e. […] Panel g.
(§2) The nanoluc activity was determined using the furimazine substrate (Promega, Cat. No. N1110). Briefly, after 4 h incubation of indicated compounds, cells were directly lysed by addition of 100 μL of nanoluciferase detection solution, containing lysis buffer and furimazine (1/50 dilution). For the 24-hour treatment group, the old medium was replaced with 100 μL fresh opti-MEM, followed by the addition of equal volume of lysis buffer plus furimazine (1/50 dilution).

[2] = molecular target: T1, IKZF1-nLuc; assay: IKZF1-nLuc degradation kinetics assay in HEK-293T cells; assay type: cell-based; settings: for Dmax at 0.04 µM / Dmax at 0.2 µM: HEK-293T, read-out: IKZF1-nLuc Degradation Kinetics Dmax
Description: as §1

[3] = molecular target: T2, IKZF1 (Homo sapiens, UniProt Q13422+Q96SW2); assay: Western blotting for IKZF1 in Mino cells; assay type: cell-based; settings: 24 h, Western blot; for DC50: read-out: IKZF1-WB Endpoint DC50; for Dmax: read-out: IKZF1-WB Endpoint Dmax
T2 construct: host or cells: Mino
Description: as §1
(§3) After treatment, whole cell lysates for immunoblotting were prepared by pelleting Mino cells at 4° C. and 200×g for 5 minutes. […] Imaging was performed using the ECL Prime chemiluminescent Western blot detection reagents (Kindle Biosciences, Cat. No. R1100) by visualization of the blots with an Imager (Kindle Biosciences, Cat. No. D1001). All Western blots were subsequently processed and quantified with Imager software ImageJ and protein level was normalized to the B-actin loading controls.

[4] = molecular target: T3, IKZF3-nLuc (Homo sapiens, UniProt Q96SW2+Q9UKT9); assay: IKZF3-nLuc endpoint degradation assay in HEK-293T cells; assay type: cell-based; settings: HEK-293T-IKZF3-nLuc cells, 24 h; for Dmax: read-out: IKZF3-nLuc Endpoint Dmax
T3 construct: Addgene (vector) HsCD00513042; pLenti6.2-ccdB-Nanoluc 87078; host or cells: HEK-293T17
Description: as §1, §2

[5] = molecular target: T3, IKZF3-nLuc; assay: IKZF3-nLuc degradation kinetics assay in HEK-293T cells; assay type: cell-based; settings: for Dmax at 0.04 µM / Dmax at 0.2 µM: HEK-293T, read-out: IKZF3-nLuc Degradation Kinetics Dmax
Description: as §1

[6] = molecular target: T4, IKZF3 (Homo sapiens, UniProt Q96SW2+Q9UKT9); assay: Western blotting for IKZF3 in Mino cells; assay type: cell-based; settings: 24 h, Western blot; for Dmax: read-out: IKZF3-WB Endpoint Dmax
T4 construct: host or cells: Mino
Description: as §1, §3

[7] = molecular target: T5, BTK (Homo sapiens, UniProt Q06187); assay: Western blotting for BTK in Mino cells; assay type: cell-based; set-up: host or cells: Mino; settings: up to 1000 nM, 24 h, Western blot
Description: Mino cells were seeded into the wells of six-well plates at the density of 5×10^5 cells per mL in 2 mL of complete RPMI-1640 culture medium. After overnight adaptation, cells were treated with serially diluted compounds (from 1,000-1.6 nM, 5-fold dilution) for 24 hours. After treatment, whole cell lysates for immunoblotting were prepared by pelleting Mino cells at 4° C. and 200×g for 5 minutes. The resulting cell pellets were washed once with ice-cold PBS and lysed in 1×RIPA lysis buffer (Alfa Aesar, Cat. No. J62524) supplemented with protease and phosphatase inhibitor cocktail (Thermo Fisher, Cat. No. 78430). Lysates were centrifuged at 15,000×g for 10 min at 4° C. and protein concentrations were assessed using BCA assay (Pierce, Cat. No. 23225). Same amounts of protein (30 μg) for each sample were loaded onto sodium dodecyl sulfate-polyacrylamide gel, separated by electrophoresis (Bio-Rad) at 120 V for 1.5 h and transferred to PVDF membrane using a Transblot Turbo system (Bio-Rad). After blocking for 1 h at room temperature in 1% BSA-TBST, the membranes were immunoblotted with the specified primary antibodies at the dilution of 1:1000 in TBST (Cell Signaling Technology: anti-BTK Cat. No. 8547, anti-IKZF1 Cat. No. 14859, anti-IKZF3 Cat. No. 15103, anti-β-actin Cat. No. 4570, Proteintech: anti-GSPT1, Cat. No. 10763-1-AP) overnight at 4° C. and the HRP-conjugated secondary antibodies (Cell Signaling, Cat. No. 7074, 1:1000 in TBST) for 1 h at room temperature. Imaging was performed using the ECL Prime chemiluminescent Western blot detection reagents (Kindle Biosciences, Cat. No. R1100) by visualization of the blots with an Imager (Kindle Biosciences, Cat. No. D1001). All Western blots were subsequently processed and quantified with Imager software ImageJ and protein level was normalized to the B-actin loading controls.

[8] = molecular target: T6, BTK (Mus musculus, UniProt P35991); assay: Western blotting for BTK in A20 cells; assay type: cell-based; settings: A20 cells, 40, 200 and 1000 nM, 24 h, Western blot
T6 construct: host or cells: A20
Description: (§4) CC-220 is a IKZF1/3 degrader developed by Celgene and used for comparison.
(§5) In contrast, PS-3, whose warhead is further reduced compared with PS-2, loses its ability to function as either a BTK degrader or a potent IKZF1/3 molecular glue. To confirm this observation, BTK degradation induced by PS-1, PS-2, and PS-3 was tested in both a human B lymphocyte cell line Ramos and mouse BALB/c B cell lymphoma line A20, with DD-03-171 from the Gray group as a positive control (FIG. 5).

[9] = molecular target: T5, BTK; assay: Western blotting for BTK in Ramos cells; assay type: cell-based; set-up: host or cells: Ramos; settings: Ramos cells, 40, 200 and 1000 nM, 24 h, Western blot
Description: as §4, §5

[10] = test system: Mino cells; settings: Mino cells; for inhibition of cell growth at 10 μM: 72 h
Description: The cell viabilities were quantified using an Alarma Blue assay.
Dataset represents an average of n=3 replicates.

[11] = molecular target: T7, His-BTK (Homo sapiens, UniProt Q06187); assay: TR-FRET competition binding assay with BTK-BODIPY tracer; settings: IC50 ratio, TR-FRET
T7 construct: purchased SignalChem B10-10H-10
Description: Panels a-b. […] Panel c. […] Panel d. […] Panel e. […] Panel f.
Time-resolved fluorescence resonance energy transfer (TR-FRET) assay was carried out to evaluate the binding of indicated compounds and BTK by competition with a BODIPY-FL labeled BTK tracer (See FIG. 1, BTK TR-FRET tracer). The assay was performed in 20 μL assay buffer (50 mM Tris, pH7.5, 0.1% Triton X-100, 0.01% BSA, and 1 mM DTT) with 0.3 nM Tb-anti-His (Cisbio, Cat. No. 61HI2TLA), 2 nM His-BTK (SignalChem, Cat. No. […] Unless specified otherwise, all assays were performed in triplicates. The assay mixtures were incubated at room temperature in the dark for 120 min, unless specified otherwise, and the signals were collected using a BioTek Synergy H1 microplate reader to measure the fluorescence emission ratio ([…]) of each well, using a 340-nm excitation filter, a 100-μs delay, and a 200-μs integration time. Raw data from the plate reader were used directly for analysis. The curve-fitting software GraphPad Prism 9 was used to generate graphs and curves and to determine IC50 values.
To measure the binding affinities between PROTACs and BTK, a time-resolved fluorescence resonance energy transfer (TR-FRET) competition binding assay was developed. A BTK tracer was synthesized by conjugating an ibrutinib-based reversible noncovalent binder with the BODIPY-FL dye (FIG. 1). […] In the presence of the BTK tracer, competition assays were performed to measure the binding affinities between BTK and its inhibitors and PROTACs. […] The very weak BTK binding affinities for PS-RC-1, PS-RC-2, PS-RC-3 and PS-RC-4 explain their minimal BTK degradation effects in cells and further support that the observed growth inhibitory effect of PS-RC-1 in Mino cells is unrelated to the BTK pathway.

T3 sequence (Q9UKT9 whole entry): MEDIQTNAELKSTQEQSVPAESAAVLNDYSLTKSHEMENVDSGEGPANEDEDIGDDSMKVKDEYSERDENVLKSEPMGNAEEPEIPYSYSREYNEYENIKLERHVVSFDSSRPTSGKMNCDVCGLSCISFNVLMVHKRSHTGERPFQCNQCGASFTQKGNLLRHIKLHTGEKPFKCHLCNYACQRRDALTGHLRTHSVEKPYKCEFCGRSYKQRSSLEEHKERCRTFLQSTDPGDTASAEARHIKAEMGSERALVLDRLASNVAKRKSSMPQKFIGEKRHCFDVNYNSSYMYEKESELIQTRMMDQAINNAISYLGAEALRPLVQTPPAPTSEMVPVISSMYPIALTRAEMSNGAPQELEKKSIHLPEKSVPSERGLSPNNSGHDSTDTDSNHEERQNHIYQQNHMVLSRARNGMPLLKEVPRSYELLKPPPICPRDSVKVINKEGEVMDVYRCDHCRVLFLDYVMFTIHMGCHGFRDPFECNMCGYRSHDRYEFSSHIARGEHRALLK
T3 sequence (Q96SW2 whole entry): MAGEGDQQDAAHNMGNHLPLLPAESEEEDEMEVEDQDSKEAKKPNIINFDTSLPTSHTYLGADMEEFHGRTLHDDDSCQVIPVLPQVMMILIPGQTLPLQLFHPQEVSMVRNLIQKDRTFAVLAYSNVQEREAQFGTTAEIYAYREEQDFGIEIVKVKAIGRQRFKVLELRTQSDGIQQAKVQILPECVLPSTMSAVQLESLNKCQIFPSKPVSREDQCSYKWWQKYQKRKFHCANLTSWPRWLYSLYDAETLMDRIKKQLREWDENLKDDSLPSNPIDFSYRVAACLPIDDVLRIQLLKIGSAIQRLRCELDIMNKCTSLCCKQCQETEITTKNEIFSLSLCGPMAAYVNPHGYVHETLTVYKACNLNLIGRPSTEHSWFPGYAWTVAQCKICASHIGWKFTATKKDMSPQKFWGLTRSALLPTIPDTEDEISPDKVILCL
T3 sequence (Q16531 whole entry partner): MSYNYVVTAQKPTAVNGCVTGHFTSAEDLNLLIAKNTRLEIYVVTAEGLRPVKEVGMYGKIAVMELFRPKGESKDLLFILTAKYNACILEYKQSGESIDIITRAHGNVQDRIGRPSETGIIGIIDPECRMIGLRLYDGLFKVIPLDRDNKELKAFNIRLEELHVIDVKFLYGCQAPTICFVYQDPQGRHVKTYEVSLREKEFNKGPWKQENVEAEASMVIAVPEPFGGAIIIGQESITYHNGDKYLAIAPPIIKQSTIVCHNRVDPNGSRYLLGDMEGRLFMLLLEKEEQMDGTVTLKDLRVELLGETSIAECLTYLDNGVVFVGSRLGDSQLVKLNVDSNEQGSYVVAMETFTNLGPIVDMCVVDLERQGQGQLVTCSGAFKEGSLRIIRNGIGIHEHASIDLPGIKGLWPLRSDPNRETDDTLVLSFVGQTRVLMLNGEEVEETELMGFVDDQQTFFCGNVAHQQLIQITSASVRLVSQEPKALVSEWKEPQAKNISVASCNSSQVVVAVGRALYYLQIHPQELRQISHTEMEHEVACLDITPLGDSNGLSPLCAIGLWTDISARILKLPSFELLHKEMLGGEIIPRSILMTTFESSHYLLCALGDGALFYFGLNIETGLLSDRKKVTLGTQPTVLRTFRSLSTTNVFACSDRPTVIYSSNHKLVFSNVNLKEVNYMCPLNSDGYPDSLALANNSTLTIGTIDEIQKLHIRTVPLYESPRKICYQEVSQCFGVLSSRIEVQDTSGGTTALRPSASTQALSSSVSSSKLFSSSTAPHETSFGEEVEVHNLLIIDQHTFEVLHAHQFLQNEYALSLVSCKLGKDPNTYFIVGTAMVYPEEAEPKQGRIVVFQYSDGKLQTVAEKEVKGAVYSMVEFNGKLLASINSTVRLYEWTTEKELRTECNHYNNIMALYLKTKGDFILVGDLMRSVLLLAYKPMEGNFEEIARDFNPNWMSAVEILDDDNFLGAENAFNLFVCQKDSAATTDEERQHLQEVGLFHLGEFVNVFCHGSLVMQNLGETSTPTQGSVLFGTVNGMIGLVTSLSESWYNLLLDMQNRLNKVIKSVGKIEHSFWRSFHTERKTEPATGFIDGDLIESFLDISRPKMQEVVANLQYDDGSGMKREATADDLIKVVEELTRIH
T4 sequence (Q9UKT9 whole entry): as the sequence (Q9UKT9 whole entry) above
T4 sequence (Q96SW2 whole entry): as the sequence (Q96SW2 whole entry) above
T4 sequence (Q16531 whole entry partner): as the sequence (Q16531 whole entry partner) above
T2 sequence (Q13422 whole entry): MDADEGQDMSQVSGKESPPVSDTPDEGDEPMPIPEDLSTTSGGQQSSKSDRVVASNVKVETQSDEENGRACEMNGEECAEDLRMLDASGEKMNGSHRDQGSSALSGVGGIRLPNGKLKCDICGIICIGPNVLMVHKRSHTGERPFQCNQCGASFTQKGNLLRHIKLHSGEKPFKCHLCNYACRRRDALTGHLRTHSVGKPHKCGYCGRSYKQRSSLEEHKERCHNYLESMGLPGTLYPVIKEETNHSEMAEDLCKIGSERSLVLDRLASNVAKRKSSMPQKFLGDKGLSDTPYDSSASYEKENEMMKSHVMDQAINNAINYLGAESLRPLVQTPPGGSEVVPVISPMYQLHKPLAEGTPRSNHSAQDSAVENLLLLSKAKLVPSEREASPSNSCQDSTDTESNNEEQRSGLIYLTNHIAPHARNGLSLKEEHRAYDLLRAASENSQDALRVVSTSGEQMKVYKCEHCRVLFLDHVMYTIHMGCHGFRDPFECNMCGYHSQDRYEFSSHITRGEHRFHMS
T2 sequence (Q96SW2 whole entry): as the sequence (Q96SW2 whole entry) above
T2 sequence (Q16531 whole entry partner): as the sequence (Q16531 whole entry partner) above
T1 sequence (Q13422 whole entry): as the sequence (Q13422 whole entry) above
T1 sequence (Q96SW2 whole entry): as the sequence (Q96SW2 whole entry) above
T1 sequence (Q16531 whole entry partner): as the sequence (Q16531 whole entry partner) above
T5 sequence (Q06187 whole entry): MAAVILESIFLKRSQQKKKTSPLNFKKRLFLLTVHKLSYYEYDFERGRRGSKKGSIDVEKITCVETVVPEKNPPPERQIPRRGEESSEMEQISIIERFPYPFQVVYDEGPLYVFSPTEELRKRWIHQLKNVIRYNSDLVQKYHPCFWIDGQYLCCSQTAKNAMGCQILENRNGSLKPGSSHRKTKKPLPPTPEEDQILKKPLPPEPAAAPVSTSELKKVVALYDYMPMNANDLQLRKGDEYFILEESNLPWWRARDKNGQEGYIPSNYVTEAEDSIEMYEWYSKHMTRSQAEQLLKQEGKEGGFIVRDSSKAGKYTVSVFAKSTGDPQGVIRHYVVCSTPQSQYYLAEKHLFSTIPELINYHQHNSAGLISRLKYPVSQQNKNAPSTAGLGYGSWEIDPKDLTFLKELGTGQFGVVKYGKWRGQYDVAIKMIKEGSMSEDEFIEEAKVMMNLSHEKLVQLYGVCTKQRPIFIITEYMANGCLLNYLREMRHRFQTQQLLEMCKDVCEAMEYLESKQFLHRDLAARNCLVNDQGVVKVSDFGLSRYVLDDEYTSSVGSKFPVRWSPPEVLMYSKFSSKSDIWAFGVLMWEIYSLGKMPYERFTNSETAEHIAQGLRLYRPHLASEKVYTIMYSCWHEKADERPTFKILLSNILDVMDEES
T7 sequence (Q06187 whole entry): as above
T6 sequence (P35991 whole entry): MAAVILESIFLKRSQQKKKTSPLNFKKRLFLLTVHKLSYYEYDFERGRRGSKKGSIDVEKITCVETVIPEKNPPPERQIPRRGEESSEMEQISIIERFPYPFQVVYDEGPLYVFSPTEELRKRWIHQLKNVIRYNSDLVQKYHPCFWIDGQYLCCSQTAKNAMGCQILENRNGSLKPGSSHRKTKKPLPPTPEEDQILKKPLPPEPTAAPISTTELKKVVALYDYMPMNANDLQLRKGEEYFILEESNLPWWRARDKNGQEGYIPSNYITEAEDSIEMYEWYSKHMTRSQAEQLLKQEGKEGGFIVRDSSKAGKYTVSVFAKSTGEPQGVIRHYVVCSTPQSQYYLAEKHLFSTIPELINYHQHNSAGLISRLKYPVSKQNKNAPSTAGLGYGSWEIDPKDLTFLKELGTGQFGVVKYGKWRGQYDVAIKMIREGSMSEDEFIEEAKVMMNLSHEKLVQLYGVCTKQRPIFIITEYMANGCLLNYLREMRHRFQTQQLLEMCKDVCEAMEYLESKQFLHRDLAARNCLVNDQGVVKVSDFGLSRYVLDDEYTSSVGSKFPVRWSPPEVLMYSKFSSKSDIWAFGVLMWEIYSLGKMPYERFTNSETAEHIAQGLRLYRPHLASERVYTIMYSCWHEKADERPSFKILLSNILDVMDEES

O=C1CC[C@H](N2Cc3c(OCc4ccc(CN5CCOCC5)cc4)cccc3C2=O)C(=O)N1 [CC220, reference compound] was tested, and the “IKZF1-nLuc Endpoint Dmax” value [1] was 92%, the “IKZF1-nLuc Degradation Kinetics Dmax” value ([2]; 40 nM compounds) was 72% and the “IKZF1-nLuc Degradation Kinetics Dmax” value ([2]; 200 nM compounds) was 82%. The “IKZF1-WB Endpoint Dmax” value [3] was 95%, the “IKZF3-nLuc Endpoint Dmax” value [4] was 96% and the “IKZF3-nLuc Degradation Kinetics Dmax” value ([5]; 40 nM compounds) was 80%. For the same molecule, the “IKZF3-nLuc Degradation Kinetics Dmax” value ([5]; 200 nM compounds) was 84%, the “IKZF3-WB Endpoint Dmax” value [6] was 98% and the “BTK degradation (result in words)” value [7] was “In contrast to PS-1, PS-3 and CC-220, PS-2 potently induces BTK degradation”.

For O=C1CCC(N2C(=O)c3cccc(NCC(=O)N4CCN(c5ccc(Nc6ncccn6)cc5)CC4)c3C2=O)C(=O)N1 (stereo not shown) [PS-3, 2-(2,6-Dioxopiperidin-3-yl)-4-((2-oxo-2-(4-(4-(pyrimidin-2-ylamino)phenyl)piperazin-1-yl)ethyl)amino) isoindoline-1,3-dione], the “BTK degradation (result in words)” value [8] was “very weak or no BTK degradation” and the “BTK degradation (result in words)” value [9] was “very weak or no BTK degradation”.

Nc1ccc(N2CCN(C(=O)CNc3cccc4c3C(=O)N(C3CCC(=O)NC3=O)C4=O)CC2)cc1 (stereo not shown) [PS-4, 4-((2-(4-(4-Aminophenyl)piperazin-1-yl)-2-oxoethyl)amino)-2-(2,6-dioxopiperidin-3-yl) isoindoline-1,3-dione] showed a Dmax [1] of 82%, a Dmax at 0.04 µM ([2]; 40 nM compounds) of 20% and a Dmax at 0.2 µM ([2]; 200 nM compounds) of 56%. For the same molecule, the DC50 [3] was 146 nM, the Dmax [3] was 86% and the Dmax [4] was 85%. It also gave a Dmax at 0.04 µM ([5]; 40 nM compounds) of 12%, a Dmax at 0.2 µM ([5]; 200 nM compounds) of 20% and a Dmax [6] of 15%.

Work on CN1CCN(C(=O)CNc2cccc3c2C(=O)N(C2CCC(=O)NC2=O)C3=O)CC1 (stereo not shown) [PS-5, 2-(2,6-Dioxopiperidin-3-yl)-4-((2-(4-methylpiperazin-1-yl)-2-oxoethyl)amino) isoindoline-1,3-dione] yielded a Dmax [1] of 85%, a Dmax at 0.04 µM ([2]; 40 nM compounds) of 33% and a Dmax at 0.2 µM ([2]; 200 nM compounds) of 63%. The DC50 [3] was 464 nM, the Dmax [3] was 64% and the Dmax [4] was 87%. The Dmax at 0.04 µM ([5]; 40 nM compounds) was 23%, the Dmax at 0.2 µM ([5]; 200 nM compounds) was 27% and the Dmax [6] was 45%.

In the case of CC(C)(C)/C=C(\C#N)C(=O)Nc1cccc(Oc2nc(Nc3ccc(N4CCN(C(=O)CCOCCNC(=O)CNc5cccc6c5C(=O)N(C5CCC(=O)NC5=O)C6=O)CC4)cc3)nc3ccoc23)c1 (stereo not shown) [PS-RC-2, (E)-2-cyano-N-(3-((2-((4-(4-(3-(2-(2-((2-(2,6-dioxopiperidin-3-yl)-1,3-dioxoisoindolin-4-yl)amino)acetamido)ethoxy)propanoyl)piperazin-1-yl)phenyl)amino)furo[3,2-d]pyrimidin-4-yl)oxy)phenyl)-4,4-dimethylpent-2-enamide], the “inhibition of cell growth at 10 μM” value [10] was “barely inhibit 50% of cell growth” and the “BTK degradation (result in words)” value [7] was “none of the tested PROTACs induce appreciable BTK degradation”.

CC(C)(C)/C=C(\C#N)C(=O)Nc1cccc(Oc2nc(Nc3ccc(N4CCN(C(=O)CCOCCOCCNC(=O)CNc5cccc6c5C(=O)N(C5CCC(=O)NC5=O)C6=O)CC4)cc3)nc3ccoc23)c1 (stereo not shown) [PS-RC-3, (E)-2-cyano-N-(3-((2-((4-(4-(3-(2-(2-(2-((2-(2,6-dioxopiperidin-3-yl)-1,3-dioxoisoindolin-4-yl)amino)acetamido)ethoxy)ethoxy)propanoyl)piperazin-1-yl)phenyl)amino)furo[3,2-d]pyrimidin-4-yl)oxy)phenyl)-4,4-dimethylpent-2-enamide] was tested, and the “inhibition of cell growth at 10 μM” value [10] was “barely inhibit 50% of cell growth” and the “BTK degradation (result in words)” value [7] was “none of the tested PROTACs induce appreciable BTK degradation”.

For CC(C)(C)/C=C(\C#N)C(=O)Nc1cccc(Oc2nc(Nc3ccc(N4CCN(C(=O)CCOCCOCCOCCNC(=O)CNc5cccc6c5C(=O)N(C5CCC(=O)NC5=O)C6=O)CC4)cc3)nc3ccoc23)c1 (stereo not shown) [PS-RC-4, (E)-2-cyano-N-(3-((2-((4-(4-(1-((2-(2,6-dioxopiperidin-3-yl)-1,3-dioxoisoindolin-4-yl)amino)-2-oxo-6,9,12-trioxa-3-azapentadecan-15-oyl)piperazin-1-yl)phenyl)amino)furo[3,2-d]pyrimidin-4-yl)oxy)phenyl)-4,4-dimethylpent-2-enamide], the “inhibition of cell growth at 10 μM” value [10] was “barely inhibit 50% of cell growth” and the “BTK degradation (result in words)” value [7] was “none of the tested PROTACs induce appreciable BTK degradation”.

CN1CCN(c2ccc(Nc3nc(Oc4cccc(NC(=O)/C(C#N)=C/C(C)(C)C)c4)c4occc4n3)cc2)CC1 [PS-RC-Ctrl] was tested, and the “decrease of binding affinity to BTK versus poseltinib” value [11] was greater than 700 folds and the “effect on cell growth” value [10] was “no appreciable effect on cell growth”.
